According to ChEMBL document CHEMBL1201862, “PubChem BioAssay data set” (2004):
Calls of active or inactive are those of the source.

What was measured:
[1] = biological target: Glucose-6-phosphate 1-dehydrogenase (Homo sapiens, UniProt P11413); test: human G6PD enzyme inhibitors, dose response, selectivity assay for P. falciparum G6PD inhibitor project, biochemical, fluorescence (AID 504792); assay type: functional
[2] = cytotoxicity in HEK-293T cells, dose response, cytotoxicity control for BCR NF-kB inhibitor project, luminescence, B-cell screen hits (AID 489021); assay type: functional, cell-based;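 also: HEK-293T cells carrying an NF-kB luciferase reporter; cells exposed to compound for about 14 hours before viability readout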
[3] = off-target signal loss in HeLa-CEM21 co-culture – HeLa F-luc CTL cells, cherry-picked, counter-screen for HIV-1 Env fusion inhibitor project, dose response (AID 652040); assay type: functional, cell-based;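 also: potency for signal decrease marking cytotoxic or nonspecific inhibition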
[4] = inhibitors of HIV Env-driven cell fusion, dose response, cherry-pick (AID 652057); assay type: functional, cell-based
[5] = Luminescence Cell-Based Dose Response HTS to Identify Inhibitors of 5'UTR Stem-Loop Driven Prion Protein mRNA Translation in H4 Neuroglioblastoma Cells. [Related pubchem assays: 1827 (Project Summary), 1813 (Primary HTS)]; assay type: functional
[6] = inhibitors of SNCA 5'UTR-driven reporter translation, confirmation, H4 neuroglioma cells, luminescence (AID 1988); assay type: functional, cell-based
[7] = inhibitors of clade B AD8 Env fusion, dose response, cell-based, cherry-pick (AID 652062); assay type: functional;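 also: luciferase signal from cell-cell fusion driven by HIV-1 clade B AD8 Env; potency is for inhibitors of fusion seen as a drop in luminescence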
[8] = ZM109 Env clade C HIV-1 fusion inhibitors, dose response, HeLa effector, CEM target cells, luciferase, cherry-pick (AID 652058); assay type: functional, cell-based
[9] = biological target: T1, Carboxy-terminal domain RNA polymerase II polypeptide A small phosphatase 1 (Homo sapiens, UniProt Q9GZU7); test: inhibitors of CTDSP1, concentration-response testing, biochemical assay, absorbance-based, actives from ultra-high-throughput screening (AID 540297); assay type: functional
T1 sequence (Q9GZU7 whole entry): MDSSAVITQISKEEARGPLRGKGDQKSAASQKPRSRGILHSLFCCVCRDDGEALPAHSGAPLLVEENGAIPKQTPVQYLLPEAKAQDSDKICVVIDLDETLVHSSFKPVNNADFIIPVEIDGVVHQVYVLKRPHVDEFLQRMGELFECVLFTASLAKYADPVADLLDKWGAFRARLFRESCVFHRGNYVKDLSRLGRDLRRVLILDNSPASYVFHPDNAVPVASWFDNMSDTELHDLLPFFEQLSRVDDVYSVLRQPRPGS

ORF 73 = biological target: T2, ORF 73 (Human herpesvirus 8, UniProt O40947); test: inhibitors of C-LANA binding to LBS DNA, dose response, biochemical, fluorescence polarization, cherry-picked samples (AID 504725); design: species or system Human gammaherpesvirus 8;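 also: fluorescence polarization of a labeled DNA duplex reporting LANA DNA binding; potency is for inhibitors that block LANA binding to the DNA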
T2 sequence (O40947 whole entry): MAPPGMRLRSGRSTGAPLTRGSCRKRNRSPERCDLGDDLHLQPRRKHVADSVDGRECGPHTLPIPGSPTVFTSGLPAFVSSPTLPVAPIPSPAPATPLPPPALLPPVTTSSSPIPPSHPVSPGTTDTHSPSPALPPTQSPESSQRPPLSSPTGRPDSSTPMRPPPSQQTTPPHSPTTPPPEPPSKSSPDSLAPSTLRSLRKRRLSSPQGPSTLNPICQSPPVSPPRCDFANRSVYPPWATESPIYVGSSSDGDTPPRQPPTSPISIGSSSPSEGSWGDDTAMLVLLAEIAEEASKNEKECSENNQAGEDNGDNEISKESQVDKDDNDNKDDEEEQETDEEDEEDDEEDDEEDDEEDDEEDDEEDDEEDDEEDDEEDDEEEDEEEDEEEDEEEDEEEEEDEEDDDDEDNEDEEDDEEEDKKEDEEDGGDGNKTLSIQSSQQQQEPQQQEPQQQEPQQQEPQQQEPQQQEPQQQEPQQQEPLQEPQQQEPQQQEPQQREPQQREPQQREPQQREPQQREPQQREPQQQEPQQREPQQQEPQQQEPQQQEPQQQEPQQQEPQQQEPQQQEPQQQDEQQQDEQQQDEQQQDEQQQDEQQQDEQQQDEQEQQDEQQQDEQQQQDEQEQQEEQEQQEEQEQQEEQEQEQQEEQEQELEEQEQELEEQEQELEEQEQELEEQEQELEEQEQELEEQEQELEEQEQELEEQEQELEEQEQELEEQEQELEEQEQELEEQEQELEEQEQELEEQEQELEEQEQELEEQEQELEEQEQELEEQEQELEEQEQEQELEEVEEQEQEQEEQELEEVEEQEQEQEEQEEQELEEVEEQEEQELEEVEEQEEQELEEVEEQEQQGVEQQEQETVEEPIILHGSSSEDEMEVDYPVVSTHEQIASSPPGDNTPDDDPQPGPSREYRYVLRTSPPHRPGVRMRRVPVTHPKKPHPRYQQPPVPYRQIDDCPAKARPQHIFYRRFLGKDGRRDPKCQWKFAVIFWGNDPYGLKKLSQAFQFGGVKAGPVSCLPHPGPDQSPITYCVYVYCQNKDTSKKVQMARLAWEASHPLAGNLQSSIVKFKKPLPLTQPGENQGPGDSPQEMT

Caspase-6 = Caspase-6 (Homo sapiens, UniProt P55212); test: human caspase-6 inhibitors, dose response, biochemical, VEID-R110 fluorescence, cherry-pick (AID 720632)
Caspase-6, sequence (P55212 24-179 limits assumed): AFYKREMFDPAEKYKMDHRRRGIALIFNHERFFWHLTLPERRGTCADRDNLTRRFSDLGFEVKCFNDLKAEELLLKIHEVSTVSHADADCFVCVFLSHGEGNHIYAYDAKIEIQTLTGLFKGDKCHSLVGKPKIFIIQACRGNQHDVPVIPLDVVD
Caspase-6, sequence (P55212 194-293 limits assumed): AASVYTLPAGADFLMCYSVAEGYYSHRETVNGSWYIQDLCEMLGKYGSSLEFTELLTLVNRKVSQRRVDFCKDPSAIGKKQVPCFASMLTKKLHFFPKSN

HeLa = test: HeLa cell cytotoxicity, dose response, cytotoxicity control, 24 h, cherry-picked samples (AID 504726); assay type: functional, cell-based; settings: Homo sapiens;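 also: potency for cytotoxicity as loss of luminescence signal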
Nonstructural protein 1 = Nonstructural protein 1 (Influenza A virus, UniProt Q194T2); assay type: functional, Influenza A virus (A/California/07/2009(H1N1))
Nonstructural protein 1, sequence (Q194T2 whole entry): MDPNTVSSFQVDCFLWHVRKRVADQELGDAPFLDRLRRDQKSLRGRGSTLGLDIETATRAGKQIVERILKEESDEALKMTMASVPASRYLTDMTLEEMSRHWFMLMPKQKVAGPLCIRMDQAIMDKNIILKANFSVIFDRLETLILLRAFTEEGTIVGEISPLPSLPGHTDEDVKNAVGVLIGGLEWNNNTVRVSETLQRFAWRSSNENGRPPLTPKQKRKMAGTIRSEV

Genome polyprotein = Genome polyprotein (dengue virus type 2, UniProt P29990); test: Dengue-2 NS5 methyltransferase inhibitors, primary screen, biochemical, confirmation dose response (AID 588689); assay type: functional
Genome polyprotein, sequence (P29990 2492-3391 limits assumed): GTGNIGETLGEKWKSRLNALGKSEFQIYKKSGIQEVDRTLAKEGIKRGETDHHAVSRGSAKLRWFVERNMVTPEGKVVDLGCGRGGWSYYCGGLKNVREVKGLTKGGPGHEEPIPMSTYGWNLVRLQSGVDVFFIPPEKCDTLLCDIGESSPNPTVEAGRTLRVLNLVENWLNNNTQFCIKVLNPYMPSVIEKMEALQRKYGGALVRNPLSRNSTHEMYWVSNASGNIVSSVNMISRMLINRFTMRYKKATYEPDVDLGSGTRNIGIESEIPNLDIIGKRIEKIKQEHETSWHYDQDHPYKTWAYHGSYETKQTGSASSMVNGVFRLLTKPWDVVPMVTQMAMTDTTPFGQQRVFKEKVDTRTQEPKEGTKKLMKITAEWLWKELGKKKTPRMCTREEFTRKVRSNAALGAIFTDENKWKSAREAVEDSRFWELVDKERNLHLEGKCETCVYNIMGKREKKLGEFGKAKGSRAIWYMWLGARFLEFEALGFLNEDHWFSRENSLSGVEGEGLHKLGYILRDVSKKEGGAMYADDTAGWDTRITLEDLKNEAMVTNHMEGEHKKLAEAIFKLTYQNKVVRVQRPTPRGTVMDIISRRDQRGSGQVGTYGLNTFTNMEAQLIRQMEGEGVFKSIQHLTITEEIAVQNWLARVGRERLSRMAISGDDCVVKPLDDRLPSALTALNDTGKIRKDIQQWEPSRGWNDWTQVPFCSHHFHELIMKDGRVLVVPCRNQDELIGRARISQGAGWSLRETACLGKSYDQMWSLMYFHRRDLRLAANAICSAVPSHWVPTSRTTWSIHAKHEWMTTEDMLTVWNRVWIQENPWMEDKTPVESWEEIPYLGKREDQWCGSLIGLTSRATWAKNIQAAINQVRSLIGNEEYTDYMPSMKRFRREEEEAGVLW

[10] = biological target: FAD-linked sulfhydryl oxidase ALR (Homo sapiens, UniProt P55789); test: inhibitors of human ALR sulfhydryl oxidase, dose response, biochemical, H2O2 detection, luminescence, cherry-pick (AID 493248)
FAD-linked sulfhydryl oxidase ALR, sequence (P55789 whole entry): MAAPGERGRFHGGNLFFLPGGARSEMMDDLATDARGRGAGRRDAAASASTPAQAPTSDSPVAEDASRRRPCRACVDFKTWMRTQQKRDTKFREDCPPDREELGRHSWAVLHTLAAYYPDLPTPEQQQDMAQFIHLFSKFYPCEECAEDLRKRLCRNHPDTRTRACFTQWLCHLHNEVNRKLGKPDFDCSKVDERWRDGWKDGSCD

[11] = NIH-3T3 fibroblast cytotoxicity, dose response, cytotoxicity control, cell-based, fluorescence, Alamar Blue, secondary assay (AID 2327); assay type: functional;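 also: NIH-3T3 mouse fibroblasts cultured with fluconazole at 8 µg/mL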
Staphylococcus aureus = test: Inhibitors of Bacterial Quorum Sensing Structure Activity Relationship (SAR) Analysis: Dose Response Assay. [Related pubchem assays: 700, 527 ]; assay type: functional, organism-based
[12] = biological target: ATP-dependent molecular chaperone HSP82 (Candida albicans (strain WO-1) (Yeast), UniProt C4YTQ8); test: loss of DOC-induced GRE-beta-galactosidase reporter signal, dose response, Hsp90 inhibitor project, S. cerevisiae, luminescence (AID 2400); assay type: functional, cell-based;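 also: beta-galactosidase luminescence from glucocorticoid response element reporter as proxy for Hsp90 function; inhibitor potency where signal loss means Hsp90 inhibition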
ATP-dependent molecular chaperone HSP82, sequence (C4YTQ8 whole entry): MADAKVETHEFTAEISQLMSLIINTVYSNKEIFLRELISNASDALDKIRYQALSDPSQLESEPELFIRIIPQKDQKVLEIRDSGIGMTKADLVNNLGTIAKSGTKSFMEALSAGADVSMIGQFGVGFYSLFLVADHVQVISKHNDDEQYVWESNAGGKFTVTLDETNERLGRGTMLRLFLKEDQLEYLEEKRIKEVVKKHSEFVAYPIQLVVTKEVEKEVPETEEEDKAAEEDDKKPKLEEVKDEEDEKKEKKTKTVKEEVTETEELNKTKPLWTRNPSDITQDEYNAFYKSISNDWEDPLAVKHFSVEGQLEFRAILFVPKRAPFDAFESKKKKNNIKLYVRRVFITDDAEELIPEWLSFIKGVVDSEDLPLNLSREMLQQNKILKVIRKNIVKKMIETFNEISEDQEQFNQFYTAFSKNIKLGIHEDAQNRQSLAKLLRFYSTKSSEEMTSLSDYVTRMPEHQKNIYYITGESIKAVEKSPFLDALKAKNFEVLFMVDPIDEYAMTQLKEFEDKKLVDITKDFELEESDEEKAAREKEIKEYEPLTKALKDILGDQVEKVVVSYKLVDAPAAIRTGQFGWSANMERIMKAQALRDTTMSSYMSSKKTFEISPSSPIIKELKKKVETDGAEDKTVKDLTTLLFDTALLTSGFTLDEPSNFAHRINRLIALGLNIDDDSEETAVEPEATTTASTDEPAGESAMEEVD

[13] = C. albicans growth with fluconazole, confirmation, fluorescence, retest (AID 2467); assay type: functional, cell-based
[14] = biological target: T3, Serine/threonine-protein phosphatase (Candida dubliniensis (strain CD36 / CBS 7987 / NCPF 3949 / NRRLY-17841) (Yeast), UniProt B9W6M3); test: calcineurin pathway inhibitors in yeast reporter, dose response, S. cerevisiae, CDRE-lacZ, luminescence, secondary (AID 2388); assay type: functional, cell-based;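 also: yeast reporter cells carrying a calcineurin-responsive lacZ construct stimulated with calcium chloride; luminescent beta-galactosidase reporter signal in whole cells rather than isolated phosphatase activity; potency for inhibition where a drop in reporter signal means calcineurin blockade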
T3 sequence (B9W6M3 whole entry): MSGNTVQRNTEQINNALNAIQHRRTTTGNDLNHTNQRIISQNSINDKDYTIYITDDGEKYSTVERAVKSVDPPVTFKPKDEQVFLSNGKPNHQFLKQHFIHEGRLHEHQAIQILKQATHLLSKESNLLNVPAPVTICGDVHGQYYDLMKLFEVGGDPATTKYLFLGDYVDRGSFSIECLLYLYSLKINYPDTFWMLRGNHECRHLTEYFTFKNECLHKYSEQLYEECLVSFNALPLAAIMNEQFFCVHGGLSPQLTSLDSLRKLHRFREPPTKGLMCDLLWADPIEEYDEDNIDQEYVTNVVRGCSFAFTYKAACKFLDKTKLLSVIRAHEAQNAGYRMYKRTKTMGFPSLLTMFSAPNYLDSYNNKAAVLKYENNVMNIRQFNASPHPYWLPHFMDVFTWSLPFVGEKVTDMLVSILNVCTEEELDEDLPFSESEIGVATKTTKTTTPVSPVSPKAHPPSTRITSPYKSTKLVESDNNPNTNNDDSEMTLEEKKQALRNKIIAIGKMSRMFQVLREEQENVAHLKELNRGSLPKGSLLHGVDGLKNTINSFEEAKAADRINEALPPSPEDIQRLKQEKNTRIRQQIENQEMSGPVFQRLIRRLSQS

Vero = test: cells; assay type: functional; settings: Chlorocebus sabaeus
[15] = biological target: C-C chemokine receptor type 6 (Homo sapiens, UniProt P51684); test: CCR6 receptor antagonists, dose response, cell-based, luminescent beta-arrestin readout (AID 504728); assay type: functional
C-C chemokine receptor type 6, sequence (P51684 whole entry): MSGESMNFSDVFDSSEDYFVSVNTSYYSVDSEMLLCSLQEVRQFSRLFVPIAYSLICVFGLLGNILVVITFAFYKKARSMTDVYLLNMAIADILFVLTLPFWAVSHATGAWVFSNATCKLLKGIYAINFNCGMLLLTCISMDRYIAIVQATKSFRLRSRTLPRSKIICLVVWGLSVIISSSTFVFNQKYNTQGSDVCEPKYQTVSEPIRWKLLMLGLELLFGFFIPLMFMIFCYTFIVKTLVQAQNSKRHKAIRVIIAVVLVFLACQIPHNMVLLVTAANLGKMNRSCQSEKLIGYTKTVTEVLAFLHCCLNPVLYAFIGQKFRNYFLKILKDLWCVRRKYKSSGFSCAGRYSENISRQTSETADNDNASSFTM

Beta-galactosidase = Beta-galactosidase (Escherichia coli, UniProt Q8VNN2); test: beta-galactosidase enzyme inhibitors and activators, dose response, artefact control for CCR6 antagonist project, biochemical, E. coli enzyme, set 3 (AID 504712); assay type: functional
Beta-galactosidase, sequence (Q8VNN2 whole entry): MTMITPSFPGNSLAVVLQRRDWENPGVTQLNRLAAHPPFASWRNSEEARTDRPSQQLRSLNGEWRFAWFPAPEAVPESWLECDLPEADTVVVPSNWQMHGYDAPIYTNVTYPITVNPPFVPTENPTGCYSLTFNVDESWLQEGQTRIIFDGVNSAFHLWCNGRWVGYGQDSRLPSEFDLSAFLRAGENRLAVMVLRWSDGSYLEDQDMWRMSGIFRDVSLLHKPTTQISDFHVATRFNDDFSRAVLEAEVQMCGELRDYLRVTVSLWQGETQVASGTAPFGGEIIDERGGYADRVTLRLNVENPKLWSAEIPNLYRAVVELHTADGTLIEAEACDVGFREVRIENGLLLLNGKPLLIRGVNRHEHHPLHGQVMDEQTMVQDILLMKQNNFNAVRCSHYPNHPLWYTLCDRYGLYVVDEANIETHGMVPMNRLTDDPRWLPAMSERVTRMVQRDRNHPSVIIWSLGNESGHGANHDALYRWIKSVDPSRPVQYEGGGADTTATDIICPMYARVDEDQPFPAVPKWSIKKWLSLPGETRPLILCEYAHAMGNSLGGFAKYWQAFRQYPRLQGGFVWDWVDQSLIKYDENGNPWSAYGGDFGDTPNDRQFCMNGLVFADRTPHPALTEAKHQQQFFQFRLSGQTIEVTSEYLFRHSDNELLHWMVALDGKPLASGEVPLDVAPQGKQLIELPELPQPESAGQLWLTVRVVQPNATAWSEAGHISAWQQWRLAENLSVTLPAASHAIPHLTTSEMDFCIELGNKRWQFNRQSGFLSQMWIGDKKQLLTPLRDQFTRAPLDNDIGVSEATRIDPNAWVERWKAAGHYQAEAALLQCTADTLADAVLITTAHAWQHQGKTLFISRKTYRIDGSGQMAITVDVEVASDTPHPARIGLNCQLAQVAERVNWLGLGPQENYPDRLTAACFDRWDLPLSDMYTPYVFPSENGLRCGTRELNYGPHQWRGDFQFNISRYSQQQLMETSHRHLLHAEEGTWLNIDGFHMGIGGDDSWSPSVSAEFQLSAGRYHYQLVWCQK

[16] = inhibitors of Vif binding to APOBEC3G peptide, primary screen, biochemical, TR-FRET, GST-Vif 1-94, biotin-A3G peptide, dose response retest (AID 1117319); assay type: functional;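 also: TR-FRET signal of purified GST-Vif binding a biotinylated A3G peptide; inhibitors lower the FRET signal by blocking Vif and A3G binding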
[17] = biological target: T4, Corticotropin-releasing factor receptor 2/Corticotropin-releasing factor-binding protein (Homo sapiens, UniProt P24387+Q13324); test: Dose Response confirmation of uHTS hits for small molecule antagonists of the CRF-binding protein and CRF-R2 receptor complex.; assay type: functional; settings: read-out: IC50_Mean
T4 sequence (Q13324 whole entry): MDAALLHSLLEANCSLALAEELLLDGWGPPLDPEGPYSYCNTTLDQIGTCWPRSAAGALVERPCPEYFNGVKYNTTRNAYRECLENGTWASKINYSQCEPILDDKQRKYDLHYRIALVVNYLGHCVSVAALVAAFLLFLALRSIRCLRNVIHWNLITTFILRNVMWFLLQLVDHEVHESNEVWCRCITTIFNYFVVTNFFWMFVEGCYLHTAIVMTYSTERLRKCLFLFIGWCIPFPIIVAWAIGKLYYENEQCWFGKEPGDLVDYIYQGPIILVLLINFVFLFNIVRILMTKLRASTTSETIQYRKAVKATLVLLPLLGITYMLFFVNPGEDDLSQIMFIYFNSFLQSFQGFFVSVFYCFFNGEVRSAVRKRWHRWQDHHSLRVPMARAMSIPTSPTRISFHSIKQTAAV
T4 sequence (P24387 whole entry): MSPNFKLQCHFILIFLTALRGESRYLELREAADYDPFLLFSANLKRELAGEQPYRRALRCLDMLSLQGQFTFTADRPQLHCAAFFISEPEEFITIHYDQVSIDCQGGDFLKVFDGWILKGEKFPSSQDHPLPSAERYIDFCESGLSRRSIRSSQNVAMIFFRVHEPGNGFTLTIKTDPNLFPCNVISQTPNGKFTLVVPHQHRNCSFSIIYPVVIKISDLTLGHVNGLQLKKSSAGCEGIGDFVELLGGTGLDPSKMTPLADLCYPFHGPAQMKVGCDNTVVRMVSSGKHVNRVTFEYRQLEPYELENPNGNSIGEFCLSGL

[18] = biological target: T4, Corticotropin-releasing factor receptor 2/Corticotropin-releasing factor-binding protein; test: activators of CRF receptor 2 with binding protein – uHTS hits, confirmation (AID 602473); assay type: functional; settings: read-out: EC50_Mean

Glucose-6-phosphate 1-dehydrogenase, sequence (P11413 whole entry): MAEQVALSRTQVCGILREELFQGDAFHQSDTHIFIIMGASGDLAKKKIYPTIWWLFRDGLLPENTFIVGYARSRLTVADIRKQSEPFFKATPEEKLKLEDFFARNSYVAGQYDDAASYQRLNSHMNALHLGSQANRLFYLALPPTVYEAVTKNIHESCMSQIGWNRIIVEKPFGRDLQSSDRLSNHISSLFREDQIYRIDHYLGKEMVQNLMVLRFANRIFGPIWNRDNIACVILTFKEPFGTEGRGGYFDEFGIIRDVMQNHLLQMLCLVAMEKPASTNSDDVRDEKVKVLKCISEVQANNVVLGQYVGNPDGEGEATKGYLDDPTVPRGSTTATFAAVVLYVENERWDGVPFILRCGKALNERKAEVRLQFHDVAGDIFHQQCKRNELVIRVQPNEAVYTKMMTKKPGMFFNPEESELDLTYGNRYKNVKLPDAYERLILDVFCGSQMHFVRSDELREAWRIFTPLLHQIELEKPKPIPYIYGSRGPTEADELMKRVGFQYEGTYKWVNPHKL

With `OCCN1CCN(C(=S)c2ccc(-c3ccccc3)cc2)CC1` the IC50 [1] was > 80 µM (inactive), the IC50 [2] was > 80 µM (inactive) and the AC50 [3] was 5.39 µM (active). For the same compound, the AC50 [4] was 4.04 µM (active), the EC50 [5] was 12.1 µM (active) and the EC50 [6] was 9.34 µM (active). The AC50 [7] was 1.64 µM (active) and the AC50 [8] was 3.74 µM (active).
With `O=C(O)Cc1ccc(N=Nc2c(O)c(C(=O)O)cc3ccccc23)cc1` the IC50 [9] was 3.6 µM (active), the AC50 (ORF 73) was 33.6 µM (active) and the AC50 (Caspase-6) was 7.16 µM (active). For the same compound, the AC50 (HeLa) was 303 µM (active), the IC50 (Nonstructural protein 1) was 46 µM (active) and the IC50 (Genome polyprotein) was 68.1 µM (active).
With `O=C1CSC(NC(=O)N2c3ccccc3Sc3ccccc32)=N1` the AC50 [10] was 0.335 µM (active), the EC50 [11] was > 150 µM (inactive) and the IC50 (Staphylococcus aureus) was 0.278 µM (active). The EC50 [12] was > 150 µM (inactive), the EC50 [13] was 2.32 µM (active) and the EC50 [14] was > 180 µM (inactive).
For `COC(=O)c1ccccc1/N=C1\C=C(NS(=O)(=O)c2cccs2)c2ccccc2C1=O`, the CC50 (Vero) was 13.6 µM (active), the IC50 [1] was > 80 µM (inactive) and the IC50 [15] was > 66.6 µM (inactive). The IC50 (Beta-galactosidase) was > 66.6 µM (inactive) and the IC50 (Nonstructural protein 1) was 4.03 µM (active).
In the case of `COc1ccc(OC)c(NC(=O)c2[nH]c(C)c(C(C)=O)c2C)c1`, the IC50 [2] is reported as > 80 µM (inactive), the IC50 [16] is reported as > 100 µM (active) and the IC50 [17] is reported as > 47.1 µM (inactive). The EC50 [18] was > 53 µM (inactive).
